This note sets out measurements from ChEMBL document CHEMBL3124888, “Inhibiting the HIV integration process: past, present, and the future” (J Med Chem, 2014).

Structures are written as SMILES. pEC50, pIC50: −log10 of the molar value. In brackets after ≈: the same amount, converted by molar mass.

The pIC50 is −log10 of the IC50, conventionally taken in molar units. The term EC50 denotes the concentration giving half of the maximal effect. What is called pEC50 is the EC50 on a negative log10 scale, so that one unit is a factor of ten. As a reminder, the Tmax is the time from dosing to the highest level. A word on the EC90: it is the concentration at which the effect reaches the 90% level. Broadly, the bioavailability is the share of a dose that reaches the circulation, judged against a reference dose that is usually intravenous. Low values mean poor availability, high ones good availability.

In data set [1] the target is T1, Human immunodeficiency virus type 1 integrase (Human immunodeficiency virus 1, UniProt Q7ZJM1). In words: Inhibition of HIV-1 integrase binding to viral DNA by SPR-based competitive assay.
The subject of data set [2] is Human immunodeficiency virus 1. Kind of data set: Antiviral activity against HIV-1 3B infected in human C8166 cells assessed as inhibition of viral replication by MTT assay. In kind it is functional, organism-based. Conditions: Human immunodeficiency virus 1, 3B.
The subject of data set [3] is Human immunodeficiency virus 1. Kind of data set: Antiviral activity against HIV-1 by cell-based assay. Format: functional, organism-based.
The nature of data set [4]: Inhibition of HIV-1 recombinant His6-tagged integrase/human LEDGF-75 interaction expressed in Escherichia coli BL21(DE3) by SDS PAGE analysis.
In data set [5] the target is T1, Human immunodeficiency virus type 1 integrase. In words: Inhibition of HIV-1 integrase 3'-end processing activity.
The target is the same in data set [6]. Kind of data set: Inhibition of HIV1 integrase strand transfer activity.
Data set [7] deals with Human immunodeficiency virus 1. In words: Antiviral activity against HIV-1 NL4-3 infected in human HuT78 cells assessed as inhibition of viral p24 production incubated for 4 days followed by compound washout measured after 48 hrs. Format: functional, organism-based. Conditions: Human immunodeficiency virus 1, NL4-3, HuT78.
Data set [8] can be described thus: Inhibition of HIV-1 His6-tagged integrase/Flag-tagged LEDGF-75 (unknown origin) interaction by AlphaScreen assay. Background: Alpha assays give light when donor and acceptor beads are brought close together.
In data set [9] the target is T1, Human immunodeficiency virus type 1 integrase. Kind of data set: Inhibition of HIV-1 integrase 3'-end processing activity preincubated for 30 mins followed by 5'-end 32P-labeled linear double-stranded oligonucleotide addition.
Data set [10] has the same target. In words: Inhibition of HIV-1 integrase strand transfer activity preincubated for 30 mins followed by 5'-end 32P-labeled linear double-stranded oligonucleotide addition.
Data set [11] has as its system Human immunodeficiency virus 1. Kind of data set: Antiviral activity against HIV-1 harboring integrase E92Q/N155H double mutant relative to wild type HIV1. In kind it is functional.
The subject of data set [12] is Human immunodeficiency virus 1. In words: Antiviral activity against HIV-1 harboring integrase T97A/Y143C double mutant relative to wild type HIV1. Format: functional.
In data set [13] the test system is Human immunodeficiency virus 1. Kind of data set: Antiviral activity against HIV-1 harboring integrase E138K/Q148H double mutant relative to wild type HIV1. In kind it is functional.
The test system of data set [14] is Human immunodeficiency virus 1. Kind of data set: Antiviral activity against HIV-1 harboring integrase Y143C mutant relative to wild type HIV1. Format: functional.
Data set [15] relates to Human immunodeficiency virus 1. In words: Antiviral activity against HIV-1 harboring integrase G118R mutant relative to wild type HIV1. In kind it is functional.
The test system of data set [16] is Human immunodeficiency virus 1. Kind of data set: Antiviral activity against HIV-1 harboring integrase Q148R mutant relative to wild type HIV1. Format: functional.
For data set [17], the system named is Human immunodeficiency virus 1. Kind of data set: Antiviral activity against HIV-1 harboring integrase T97A/Y143R double mutant relative to wild type HIV1. Format: functional.
Data set [18] has as its system Human immunodeficiency virus 1. In words: Antiviral activity against HIV-1 harboring integrase Q148K mutant relative to wild type HIV1. In kind it is functional.
Data set [19] relates to Human immunodeficiency virus 1. Kind of data set: Antiviral activity against HIV-1 harboring integrase R263K mutant relative to wild type HIV1. Format: functional.
Data set [20] has as its system Human immunodeficiency virus 1. In words: Antiviral activity against HIV-1 harboring integrase Y143R mutant relative to wild type HIV1. In kind it is functional.
In data set [21] the test system is Human immunodeficiency virus 1. Kind of data set: Antiviral activity against HIV-1 harboring integrase G140S mutant relative to wild type HIV1. In kind it is functional.
Data set [22] has as its system Human immunodeficiency virus 1. In words: Antiviral activity against HIV-1 harboring integrase T97A mutant relative to wild type HIV1. In kind it is functional.
The test system of data set [23] is Human immunodeficiency virus 1. In words: Antiviral activity against HIV-1 harboring integrase E92Q mutant relative to wild type HIV1. Format: functional.
In data set [24] the test system is Human immunodeficiency virus 1. In words: Antiviral activity against HIV-1 harboring integrase E138K/Q148K double mutant relative to wild type HIV1. Format: functional.
Data set [25] deals with Human immunodeficiency virus 1. Kind of data set: Antiviral activity against HIV-1 harboring integrase E138K mutant relative to wild type HIV1. In kind it is functional.
For data set [26], the system named is Human immunodeficiency virus 1. In words: Antiviral activity against HIV-1 harboring integrase G140S/Q148H double mutant relative to wild type HIV1. In kind it is functional.
The subject of data set [27] is Human immunodeficiency virus 1. Kind of data set: Antiviral activity against HIV-1 harboring integrase Q148H mutant relative to wild type HIV1. In kind it is functional.
The test system of data set [28] is Human immunodeficiency virus 1. Kind of data set: Antiviral activity against HIV-1 harboring integrase T66R mutant relative to wild type HIV1. Format: functional.
In data set [29] the test system is Human immunodeficiency virus 1. Kind of data set: Antiviral activity against HIV-1 harboring integrase G140S/Q148K double mutant relative to wild type HIV1. In kind it is functional.
The test system of data set [30] is Human immunodeficiency virus 1. In words: Antiviral activity against HIV-1 harboring integrase N155H mutant relative to wild type HIV1. In kind it is functional.
The subject of data set [31] is Human immunodeficiency virus 1. Kind of data set: Antiviral activity against HIV-1 infected in human MT4 cells assessed as reduction of virus-induced cytopathic effect by MTT assay. Format: functional, organism-based. Conditions: Human immunodeficiency virus 1, MT4. Background: Damage to the host cells serves as the signal in cytopathic effect assays.
Data set [32] in a line: Selectivity index, ratio of CC50 for human MT4 cells to EC50 for HIV-1 infected in human MT4 cells. Format: toxicity, cell-based. Conditions: read-out: Ratio CC50/EC50.
Data set [33] concerns Human immunodeficiency virus.
The subject of data set [34] is Human immunodeficiency virus 1. Kind of data set: Antiviral activity against HIV-1 harboring integrase E92V mutant relative to wild type HIV1. Format: functional.
Data set [35] has as its system Human immunodeficiency virus 1. In words: Antiviral activity against HIV-1 harboring integrase G140C mutant relative to wild type HIV1. In kind it is functional.
Data set [36] has as its system Human immunodeficiency virus 1. Kind of data set: Antiviral activity against HIV-1 harboring integrase T66I/R263K double mutant relative to wild type HIV1. Format: functional.
In data set [37] the test system is Human immunodeficiency virus 1. In words: Antiviral activity against HIV-1 harboring integrase T66I mutant relative to wild type HIV1. Format: functional.
The nature of data set [38]: Tmax in dog. In kind it is ADME, organism-based, Canis lupus familiaris. Particulars: in vivo.
For data set [39], the system named is Human immunodeficiency virus 1. In words: Antiviral activity against HIV1 3B infected in human MT4 cells assessed as inhibition of viral infection after 5 days by MTT assay in presence of human serum. In kind it is functional. Conditions: Human immunodeficiency virus 1, 3B, MT4, 120 h. (In general: Formazan colour is commonly taken as a measure of viable cells.)

Data set [40] is described as follows: Tmax in rat. In kind it is ADME, organism-based. Conditions: in vivo.
Data set [41] can be described thus: Oral bioavailability in rat. In kind it is ADME, organism-based. Conditions: in vivo.
Data set [42] can be described thus: Inhibition of HIV1 integrase/LEDGF-75 (unknown origin) interaction.

In turn, `O=C(CN1CCCC1)Nc1ccc(Cc2ccc(NC(=O)CN3CCCC3)cc2)cc1` gave a pIC50 in data set [1] of 5.14. The EC50 in data set [2] was 17.1 µg/mL (≈ 40.5 µM).

Consider `CCCC(C(=O)O)c1c(C)nc2ccc(Cl)cc2c1-c1ccccc1` (configuration not stated), for which the pEC50 in data set [3] is 5.63. Further, the pIC50 in [4] was 5.86.

Take `COC(=O)[C@H](COC(=O)/C=C/c1ccc(OC(C)=O)c(OC(C)=O)c1)NC(=O)/C=C/c1ccc(OC(C)=O)c(OC(C)=O)c1`: the pIC50 in [5] and in [6] was 5.52 in each case.

As for `C=CCN(Cc1ccccc1C(=O)NC(c1ccc(OC)cc1)c1ccc(OC)cc1)Cc1ccc2c(c1C(=O)O)OCO2`, the pEC50 in data set [7] is 4.54. Further, the negative logarithm of the IC50 (pIC50) in data set [8] was 5.09.

For `O=C(c1ccccc1)c1ccc(C(c2c(O)c3ccccc3oc2=O)c2c(O)c3ccccc3oc2=O)cc1`, the pIC50 in data set [9] is 4.57; in data set [10] it was 4.74.

For the compound `C[C@@H]1CCO[C@H]2Cn3cc(C(=O)NCc4ccc(F)cc4F)c(=O)c(O)c3C(=O)N12` [DOLUTEGRAVIR], the “fold change (FC)” value in data set [11] is reported as 2; in data set [12], less than 2; in data set [13], 2; in [14], less than 2; in data set [15], 2; in [16], less than 2. The “fold change (FC)” value in data set [17] was less than 2; in data set [18], less than 2; in data set [19], 10; in data set [20], less than 2; in data set [21] it was less than 2; in data set [22], less than 2. The “fold change (FC)” value is listed as 2 in data set [23]; more than 100 in [24]; 2 in [25]; less than 2 in data set [26]; less than 2 in data set [27]; less than 2 in [28]. Also, the “fold change (FC)” value in [29] and in [30] was less than 2 each time.

On to `Cc1ccc(-c2c(C(OC(C)(C)C)C(=O)O)cnc3sc(C)cc23)cc1` (configuration not stated), for which the pEC50 in [31] is 7.16. The selectivity ratio in data set [32] was 1390.

With `Cc1nnc(C(=O)NC(C)(C)c2nc(C(=O)NCc3ccc(F)cc3)c(O)c(=O)n2C)o1`, the “fold change (FC)” value in data set [11] was 50; in data set [12], more than 100; in data set [13], less than 2; in data set [14] it was 2; in [15] it was 2; in [16] it was 20. Also, the “fold change (FC)” value in data set [17] is more than 100; in [34], more than 5; in [18] it was 50; in data set [19], less than 2; in [20] it was 20; in data set [35], more than 5. For the same compound, the “fold change (FC)” value in data set [21] is reported as 2; in data set [22], 2; in data set [23], 2; in data set [24], 10; in [25], 2; in data set [26], more than 100. The “fold change (FC)” value in data set [27] is on record as 10; in data set [28] it was 2; in [29], more than 100; in data set [36], less than 2; in [30] it was 20. In [33], this compound had a T1/2 of more than 438 min.

Take `COc1cc2c(cc1Cc1cccc(Cl)c1F)c(=O)c(C(=O)O)cn2[C@H](CO)C(C)C`: the “fold change (FC)” value is given as more than 100 in [11]; more than 10 in data set [37]; less than 2 in [12]; 10 in [13]; less than 2 in [14]; less than 2 in [15]. The “fold change (FC)” value in data set [16] is reported as 50; in [17], less than 2; in [18], 50; in data set [19], 2; in [20] it was less than 2; in [21] it was 2. Further, the “fold change (FC)” value is 2 in data set [22]; 20 in data set [23]; more than 100 in data set [24]; 2 in [25]; more than 100 in data set [26]; 2 in [27]. Further, the “fold change (FC)” value is 50 in data set [28], more than 100 in [29], more than 100 in data set [36] and 20 in data set [30]. In addition, the Tmax in data set [38] and in data set [40] was 30 min throughout. The EC90 in data set [39] was found to be 0.0017 µM. Further, the bioavailability in [41] stood at 30%.

In [42], `CC(C)c1c(C(=O)Nc2ccccc2)c(-c2ccccc2)c(-c2ccc(F)cc2)n1CC[C@@H](O)C[C@@H](O)CC(=O)O` [ATORVASTATIN] had a pIC50 of 5.05.

Regarding `CCN1C[C@H](C)n2c(c(O)c3c(=O)n(Cc4ccc(F)c(Cl)c4)nc(C(=O)NC)c32)C1=O`, the “fold change (FC)” value in data set [11] was 2; in [14], 2; in [15] it was 2; in data set [16], 2; in [18], less than 2; in [19], less than 2. Moreover, the “fold change (FC)” value was 2 in data set [20]; 2 in data set [21]; less than 2 in data set [23]; 2 in data set [25]; 10 in [26]; 2 in [27]. Moreover, the “fold change (FC)” value in [28] is reported as less than 2; in [29], 2; in data set [30], 2. The compound also displayed a T1/2 in data set [33] of 1920 min.

Compound `CCOc1cc(/C=C2\SC(=O)N(CC(=O)c3ccccc3)C2=O)c(Br)cc1OCc1ccc(C(=O)O)cc1` gave an EC50 in data set [3] of 23.8 µg/mL.

For `C[C@@](Cc1ccc(O)c(O)c1)(NN)C(=O)O` [CARBIDOPA], in data set [42], the pIC50 was 5.18.

`CCCCc1ncc(/C=C(\Cc2cccs2)C(=O)O)n1Cc1ccc(C(=O)O)cc1` [EPROSARTAN] had a pIC50 in data set [42] of 4.43.
